Source: patent US7544666B2, “NAP derivatives” (Industrial Technology Research Institute, priority 2005, dated 2009)

Columns and labels:
PC12 cells = assay: Neural protection in H2O2/PC12 cell system (MTT); assay type: cell-based; conditions: 500 μM H2O2-induced PC12 cytotoxicity
Description: The neural protection of NAP and the NAP derivatives prepared in EXAMPLE 1 were measured by H2O2/PC12 cell system. PC12 cells (4×10^4 cells) were seeded into a 96-well plate and incubated for 24 hours. NAP and the NAP derivatives prepared in EXAMPLE 1 at different concentration were added into the plate and incubated at 37° C. for 4 hours. Hydrogen peroxide with a concentration of 500 μM was then added to induce cytotoxicity. After 24 hours, supernatants were discarded and MTT [3-(4,5-dimethylthiazol-2-yl)-2,5-diphenyltetrazolium bromide] solution (0.5 mg/ml) was added for 4-hour reaction at 37° C. One hundred and fifty μl of DMSO was added to solve formazan product. Absorbance was measured by Microplate Reader at 570 nm, and cell viability was calculated. […] FIGS. 3 to 8 show the cell protection of the NAP derivatives from H2O2-induced PC12 cytotoxicity.

[1] = Pharmacokinetics after single subcutaneous dose in rats; assay type: in vivo; conditions: rat, 1 mg/kg subcutaneous
Description: A single dosage of NAP and the NAP derivative of BMEC-NAP0706 were subcutaneously administered to rats respectively, and blood samples were obtained at different time intervals. The blood samples were subjected to LC-MS/MS analysis to measure the concentration of NAP and the NAP derivative. A time-plasma concentration relationship was established and pharmacokinetic parameters were calculated. The procedures are described below.
Long Evans rats with body weight between 220 to 240 g were obtained from the National Laboratory Animal Center, Taiwan and caged in the laboratory animal housing in the Industrial Technology Research Institute, Taiwan. The Breeding procedure follows the “Guide for the Care and Use of Laboratory Animals” established by the Chinese Society of Laboratory Animal Sciences. The rats were kept on an alternating 12-hour light and 12-hour dark schedule with sufficient feed and water until they reached the body weight between 280 to 300 g.
Each rat was weighed before the pharmacokinetic examination to estimate its own dosage. The tested drug dissolved in PBS was formulated to achieve the amount of one dosage between 0.28 to 0.32 mL. Each rat was subcutaneously administered with 1 mg/kg of the tested drug. 0.3 mL of blood samples were collected from the saphenous vein in medial thigh of the rat before and 0.25-, 0.5-, 0.75-, 1-, 2-, 4-, 24-hour after administration. Whole blood was centrifuged under 3500 rpm for 10 min and supernatant (serum) was moved to a clean 1.5 mL eppendorf and stored at −80° C.
Sample pretreatment was as follows: The frozen serum was thawed in an ice bath. One hundred μL of the serum was moved to a clean 1.5 mL eppendorf and 10 μL of internal standard material was added. The mixture was added with 200 μL ACN and mixed again. The sample was centrifuged under 14000 rpm at 4° C. for 10 min, and the supernatant was moved to the other clean eppendorf and dried in a vacuum system at 60° C. for 30 min. The dried sample was dissolved in 900 μL ddH2O. The sample was added to a solid phase extraction column previously activated with methanol and ddH2O. After the sample passed through, the extraction column was washed with ddH2O alone and then ddH2O containing 5% ACN and 0.1% TFA. The sample was dissolved from the extraction column with ACN containing 0.1% TFA and dried under a vacuum system at 60° C. for 1 hour. The dried sample was redissolved with 100 μL of ddH2O containing 50% ACN. The sample was analyzed with HPLC-MS/MS system.
The sample analysis was as described below. 20 μL of the sample was poured into the HPLC-MS/MS system. The solvent system was applied in gradient partitioning: 90% A (H2O/ACN=98/2, 0.1% F.A.) and 10% B (H2O/ACN=20/80, 0.1% F.A.) at 0-3 min; 10% A and 90% B at 3-6.5 min; 90% A and 10% B again at 6.5-15 min. The flow rate was 0.2 mL/min. The column was ZORBAX C18, 5 μm, 2.1×50 mm (Agilent) and the detector was ABI 4000 Q Trap. Each sample was analyzed for 15 min. The results were compared with the standard calibration curve to estimate the concentration of each sample. All data was statistically analyzed with Excel or WinNonlin.

Caco-2 cell = assay: Stability in the Caco-2 cell system; assay type: in vitro ADME, human; conditions: 4-hour incubation in Caco-2 Transwell; relative to initial conc. = 100.00 (500 μM)
Method in brief: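 Compounds at 500 μM initial concentration were incubated 4 h at 37 °C in HBSS alone or on the apical side of Caco-2 monolayers (cultured 18–26 days, TEER over 350 Ω×cm^2). Apical and basolateral levels were quantified by reverse-phase HPLC at 210 nm against the initial concentration.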

AUC ([1]; in vivo, sc): 55.8 ng·h/mL
Cmax ([1]; in vivo, sc): 55.5 ng/mL
Tmax ([1]; in vivo, sc): 15 min
half-life ([1]; in vivo, sc, read-out: T½ (converted)): 51 min
TNAP-max [1]: 0.25 h
time required to reach the highest concentration [1]: 0.25 h
Conc. after 4-hour in Caco-2 cells (Caco-2 cell): 42.49
Structure (SMILES): CC[C@H](C)[C@H](NC(=O)[C@H](CO)NC(=O)[C@@H](NC(=O)[C@@H]1CCCN1C(=O)[C@H](C)NC(=O)[C@@H](N)CC(N)=O)C(C)C)C(=O)N1CCC[C@H]1C(=O)N[C@@H](CCC(N)=O)C(=O)O [BMEC-NAP, H-NAPVSIPQ-OH, reference compound]
concentration level at which cell viability was increased (PC12 cells): picomolar (i.e. 10^−12) level
concentration level of cell protection effect (PC12 cells; 4 h pre-incubation): femtomolar (i.e. 10^−15) level
